Measurements reported in paper PMC6272192, “Synthesis and Biological Evaluation of N-Alkyl-3-(alkylamino)-pyrazine-2-carboxamides” (Molecules, 2015).
In brackets after ≈: the same amount, converted by molar mass. Where two headings read alike, the source gives them in different places.

Columns and labels:
M. tuberculosis H37Rv [1] = conditions: previously prepared 3-alkylaminopyrazine-2-carboxamides; cited from earlier work
M. tuberculosis H37Rv [2] = assay: in vitro antimycobacterial activity, microdilution panel method; type: cell-based, Mycobacterium tuberculosis; conditions: for MIC: Mycobacterium tuberculosis
[3] = determination of lipophilicity by HPLC (log k); conditions: HPLC capacity factor, C18 column, MeOH 70% / H2O 30%
Excerpt: Instrumentation: Agilent Technologies 1200 SL liquid chromatograph with Diode-array Detector SL G1315C (Agilent Technologies Inc., Colorado Springs, CO, USA); pre-column ZORBAX XDB-C18 5 μm, 4 × 4 mm, Part No. 7995118-504 (Agilent Technologies Inc.) and column ZORBAX Eclipse XDB-C18 5 μm, 4.6 × 250 mm, Part No. 7995118-585 (Agilent Technologies Inc.). The separation process was controlled by Agilent ChemStation, version B.04.02 extended by spectral module (Agilent Technologies Inc.). Mobile phase consisted of MeOH (HPLC grade, 70%) and H2O (HPLC-Milli-Q Grade, 30%). Conditions: Flow rate 1.0 mL/min, sample injection volume 20 μL, column temperature 30 °C, detection wavelength 210 nm, monitor wavelength 270 nm. Retention times (tR) were measured in minutes. The dead time of the system (tD) was determined as the retention time of KI methanol solution. Capacity factors k for individual compounds were calculated according to the formula k = (tR − tD)/tD. Log k, calculated from the capacity factor k, is used as the lipophilicity index converted to log scale.

[4] = test system: photosystem 2 photosynthetic electron transport (PET) in spinach chloroplasts; assay: inhibition of photosynthetic electron transport (PET) in spinach chloroplasts (Hill reaction, DCPIP); type: biochemical, Spinacia oleracea L.; conditions: for PET-inhibiting activity (in words) / IC50: spinach chloroplasts
Experimental: Chloroplasts were prepared from spinach (Spinacia oleracea L.) according to Masarovicova and Kralova. The inhibition of photosynthetic electron transport (PET) in spinach chloroplasts was determined spectrophotometrically (Genesys 6, Thermo Electron Scientific Instruments, Madison, WI, USA), using an artificial electron acceptor 2,6-dichlorophenol-indophenol (DCPIP) according to Kralova et al., and the rate of photosynthetic electron transport (PET) was monitored as a photoreduction of DCPIP. The measurements were carried out in phosphate buffer (0.02 mol/L, pH 7.2) containing sucrose (0.4 mol/L), MgCl2 (0.005 mol/L) and NaCl (0.015 mol/L). The chlorophyll content was 30 mg/L in these experiments and the samples were irradiated (~100 W/m^2 with 10 cm distance) with a halogen lamp (250 W) using a 4 cm water filter to prevent warming of the samples (suspension temperature 22 °C). The studied compounds were dissolved in DMSO due to their limited water solubility. […] The inhibitory efficiency of the studied compounds was expressed by IC50 values, i.e., by molar concentration of the compounds causing 50% PET inhibition relative to the untreated control.

[5] = test system: Trichophyton mentagrophytes; assay: in vitro antifungal activity, microdilution broth method; type: cell-based; conditions: for MIC: Trichophyton mentagrophytes
Experimental: Antifungal evaluation was performed using microdilution broth method against 8 fungal strains (Candida albicans ATCC 44859, C. tropicalis 156, C. krusei E28, C. glabrata 20/I, Trichosporon asahii 1188, Aspergillus fumigates 231, Absidia corymbifera 272 and Trichophyton mentagrophytes 445). Compounds were dissolved in DMSO and diluted in a twofold manner with RPMI 1640 medium with glutamine buffered to pH 7.0 (3-morpholinopropane-1-sulfonic acid). […] Static incubation was performed in the dark and humid, at 35 °C for 24 and 48 h (respectively 72 and 120 h for Trichophyton mentagrophytes). The MIC was defined as 80% inhibition of control (50% IC for filament fungi). Drug-free controls were included. The standards were amphotericin B, voriconazole, nystatin and fluconazole.

[6] = test system: Staphylococcus epidermidis; assay: in vitro antibacterial activity, microdilution broth method; type: cell-based
Experimental: Microdilution broth method. Antibacterial evaluation was performed against bacterial strains from Czech Collection of Microorganisms (Brno, Czech Republic) (Staphylococcus aureus CCM 4516/08, Escherichia coli CCM 4517, Pseudomonas aeruginosa CCM 1961) or clinical isolates from Department of Clinical Microbiology, University Hospital and Faculty of Medicine in Hradec Králové, Charles University in Prague, Czech Republic (Staphylococcus aureus H 5996/08-methicilin resistant (MRSA), Staphylococcus epidermidis H 6966/08, Enterococcus sp. J 14365/08, Klebsiella pneumoniae D 11750/08, Klebsiella pneumoniae J 14368/08-ESBL positive). All strains were subcultured on Mueller-Hinton agar (MHA) (Difco/Becton Dickinson, Detroit, MI, USA) at 35 °C and maintained on the same medium at 4 °C. The compounds were dissolved in DMSO, and the antibacterial activity was determined in Mueller-Hinton liquid broth (Difco/Becton Dickinson), buffered to pH 7.0. Controls consisted of medium and DMSO alone. […] The standards were neomycin, bacitracin, penicillin G, ciprofloxacin and phenoxymethylpenicilin.

[7] = 336 h, Middlebrook 7H9, Alamar Blue after 14 days, read-out: MIC M. tuberculosis
[8] = DCPIP photoreduction, read-out: IC50 (PET-inhibiting activity)
[9] = Middlebrook 7H9, Alamar Blue after 14 days

Compound: CCCCCCCNc1nccnc1C(N)=O [3-heptyamino-]
- MIC (M. tuberculosis H37Rv [1]): 50 µg/mL (≈ 212 µM)

Compound: CCCCCCNc1nccnc1C(N)=O [3-hexylamino-]
- MIC (M. tuberculosis H37Rv [1]): 50 µg/mL (≈ 225 µM)

Compound: CCCCCCCCNc1nccnc1C(N)=O [3-octylaminopyrazine-2-carboxamide]
- MIC (M. tuberculosis H37Rv [1]): 50 µg/mL (≈ 200 µM)

Compound: CNC(=O)c1nccnc1Cl [Compound 1, 3-Chloro-N-methylpyrazine-2-carboxamide]
- MIC (M. tuberculosis H37Rv [2]; [7]): > 100 µg/mL
- log k [3]: −0.747
- PET-inhibiting activity (in words) [4]: inactive

Compound: CCNC(=O)c1nccnc1Cl [Compound 2, 3-Chloro-N-ethylpyrazine-2-carboxamide]
- MIC (M. tuberculosis H37Rv [2]; [7]): > 100 µg/mL
- log k [3]: −0.591
- PET-inhibiting activity (in words) [4]: inactive

Compound: CCCNC(=O)c1nccnc1Cl [Compound 3, 3-Chloro-N-propylpyrazine-2-carboxamide]
- MIC (M. tuberculosis H37Rv [2]; [7]): > 100 µg/mL
- log k [3]: −0.414
- PET-inhibiting activity (in words) [4]: inactive

Compound: CCCCNC(=O)c1nccnc1Cl [Compound 4, N-Butyl-3-chloropyrazine-2-carboxamide]
- MIC (M. tuberculosis H37Rv [2]; [7]): > 100 µg/mL
- log k [3]: −0.209
- IC50 [4, 8]: 4010 µM

Compound: CCCCCNC(=O)c1nccnc1Cl [Compound 5, 3-Chloro-N-pentylpyrazine-2-carboxamide]
- MIC (M. tuberculosis H37Rv [2]; [7]): > 100 µg/mL
- log k [3]: 0.012
- IC50 [4, 8]: 1390 µM

Compound: CCCCCCNC(=O)c1nccnc1Cl [Compound 6, 3-Chloro-N-hexylpyrazine-2-carboxamide]
- MIC (M. tuberculosis H37Rv [2]; [7]): 100 µg/mL
- log k [3]: 0.239
- MIC [5]: 250 µM (≈ 60.4 µg/mL)
- IC50 [4, 8]: 1070 µM

Compound: CCCCCCCNC(=O)c1nccnc1Cl [Compound 7, 3-Chloro-N-heptylpyrazine-2-carboxamide]
- MIC (M. tuberculosis H37Rv [2]; [7]): 100 µg/mL
- log k [3]: 0.470
- MIC [5]: 125 µM (≈ 32 µg/mL)
- IC50 [4, 8]: 256 µM

Compound: CCCCCCCCNC(=O)c1nccnc1Cl [Compound 8, 3-Chloro-N-octylpyrazine-2-carboxamide]
- MIC (M. tuberculosis H37Rv [2]; [7]): 50 µg/mL
- log k [3]: 0.702
- MIC Trichophyton mentagrophytes [5]: 62.5 µM (≈ 16.9 µg/mL)
- MIC [5]: 62.5 µM (≈ 16.9 µg/mL)
- IC50 [4, 8]: 55 µM

Compound: CNC(=O)c1nccnc1NC [Compound 9, N-Methyl-3-(methylamino)pyrazine-2-carboxamide]
- MIC (M. tuberculosis H37Rv [2]; [7]): > 100 µg/mL
- log k [3]: −0.279
- IC50 [4, 8]: 5650 µM

Compound: CCNc1nccnc1C(=O)NC [Compound 10, 3-(Ethylamino)-N-methylpyrazine-2-carboxamide]
- MIC (M. tuberculosis H37Rv [2]; [7]): > 100 µg/mL
- log k [3]: −0.052

Compound: CCCNc1nccnc1C(=O)NC [Compound 11, N-Methyl-3-(propylamino)pyrazine-2-carboxamide]
- MIC (M. tuberculosis H37Rv [2]; [7]): > 100 µg/mL
- log k [3]: 0.166

Compound: CCCCNc1nccnc1C(=O)NC [Compound 12, 3-(Butylamino)-N-methylpyrazine-2-carboxamide]
- MIC (M. tuberculosis H37Rv [2]; [7]): 100 µg/mL
- log k [3]: 0.401
- IC50 [4, 8]: 523 µM

Compound: CCCCCNc1nccnc1C(=O)NC [Compound 13, N-Methyl-3-(pentylamino)pyrazine-2-carboxamide]
- MIC (M. tuberculosis H37Rv [2]; [7]): 50 µg/mL
- log k [3]: 0.638
- MIC [5]: 250 µM (≈ 55.6 µg/mL)
- IC50 [4, 8]: 544 µM

Compound: CCCCCCNc1nccnc1C(=O)NC [Compound 14, 3-(Hexylamino)-N-methylpyrazine-2-carboxamide]
- MIC M. tuberculosis (M. tuberculosis H37Rv [2]; [9]): 25 µg/mL (≈ 106 µM)
- MIC (M. tuberculosis H37Rv [2]; [7]): 25 µg/mL
- log k [3]: 0.876
- MIC [5]: 250 µM (≈ 59.1 µg/mL)
- IC50 [4, 8]: 125 µM

Compound: CCCCCCCNc1nccnc1C(=O)NC [Compound 15, 3-(Heptylamino)-N-methylpyrazine-2-carboxamide]
- MIC (M. tuberculosis H37Rv [2]; [7]): 25 µg/mL
- log k [3]: 1.118
- MIC [5]: 125 µM (≈ 31.3 µg/mL)
- IC50 [4, 8]: 65 µM
- MIC [6]: 250 µM (≈ 62.6 µg/mL)

Compound: CCNC(=O)c1nccnc1NC [Compound 17, N-Ethyl-3-(methylamino)pyrazine-2-carboxamide]
- MIC (M. tuberculosis H37Rv [2]; [7]): > 100 µg/mL
- log k [3]: −0.063
- PET-inhibiting activity (in words) [4]: not active

Compound: CCNC(=O)c1nccnc1NCC [Compound 18, N-Ethyl-3-(ethylamino)pyrazine-2-carboxamide]
- MIC (M. tuberculosis H37Rv [2]; [7]): > 100 µg/mL
- log k [3]: 0.163
- PET-inhibiting activity (in words) [4]: not active

Compound: CCCNc1nccnc1C(=O)NCC [Compound 19, N-Ethyl-3-(propylamino)pyrazine-2-carboxamide]
- MIC (M. tuberculosis H37Rv [2]; [7]): > 100 µg/mL
- log k [3]: 0.382
- IC50 (PET) fold higher than that of compound 12 ([4]; ratio to IC50 of 12): 3.9 fold
- IC50 [4, 8]: 2050 µM
- MIC [6]: 250 µM (≈ 52.1 µg/mL)

Compound: CCCCNc1nccnc1C(=O)NCC [Compound 20, 3-(Butylamino)-N-ethylpyrazine-2-carboxamide]
- MIC (M. tuberculosis H37Rv [2]; [7]): > 100 µg/mL
- log k [3]: 0.617
- IC50 [4, 8]: 1090 µM

Compound: CCCCCNc1nccnc1C(=O)NCC [Compound 21, N-Ethyl-3-(pentylamino)pyrazine-2-carboxamide]
- MIC M. tuberculosis (M. tuberculosis H37Rv [2]; [9]): 50 µg/mL (≈ 212 µM)
- MIC (M. tuberculosis H37Rv [2]; [7]): 50 µg/mL
- log k [3]: 0.855
- MIC [5]: 250 µM (≈ 59.1 µg/mL)
- IC50 (PET) fold higher than that of compound 14 ([4]; ratio to IC50 of 14): 2.4 fold
- IC50 [4, 8]: 301 µM

Compound: CCCCCCNc1nccnc1C(=O)NCC [Compound 22, N-Ethyl-3-(hexylamino)pyrazine-2-carboxamide]
- MIC (M. tuberculosis H37Rv [2]; [7]): 50 µg/mL
- log k [3]: 1.094
- MIC [5]: 125 µM (≈ 31.3 µg/mL)
- IC50 [4, 8]: 78 µM

Compound: CCCCCCCNc1nccnc1C(=O)NCC [Compound 23, N-Ethyl-3-(heptylamino)pyrazine-2-carboxamide]
- MIC (M. tuberculosis H37Rv [2]; [7]): 50 µg/mL
- log k [3]: 1.337
- MIC [5]: 125 µM (≈ 33 µg/mL)
- IC50 [4, 8]: 48 µM
- MIC [6]: 250 µM (≈ 66.1 µg/mL)

Compound: CCCNC(=O)c1nccnc1NCCC [Compound 25, N-Propyl-3-(propylamino)pyrazine-2-carboxamide]
- MIC (M. tuberculosis H37Rv [2]; [7]): > 100 µg/mL
- log k [3]: 0.600
- IC50 [4, 8]: 1300 µM

Compound: CCCCNC(=O)c1nccnc1NCCCC [Compound 26, N-Butyl-3-(butylamino)pyrazine-2-carboxamide]
- MIC (M. tuberculosis H37Rv [2]; [7]): 50 µg/mL
- log k [3]: 1.077
- IC50 [4, 8]: 202 µM

Compound: CCCCCCCNC(=O)c1nccnc1NCCCCCCC [Compound 29, N-Heptyl-3-(heptylamino)pyrazine-2-carboxamide]
- MIC (M. tuberculosis H37Rv [2]; [7]): > 100 µg/mL
- log k [3]: 2.503
- IC50 [4, 8]: 1120 µM

Compound: CN(C)C(=O)Nc1ccc(Cl)c(Cl)c1 [DCMU, 3-(3,4-dichlorophenyl)-1,1-dimethylurea, reference compound]
- IC50 [4, 8]: 2 µM
- IC50 ([4]; read-out: IC50 (PET inhibition, Hill reaction)): ~1.9 µM

Compound: NNC(=O)c1ccncc1 [INH, Isoniazid, reference compound]
- MIC M. tuberculosis (M. tuberculosis H37Rv [2]; [9]): 0.1 to 0.39 µg/mL
- MIC (M. tuberculosis H37Rv [2]; [7]): 0.1 to 0.39 µg/mL
- MIC (M. tuberculosis H37Rv [2]; conversion of the μg/mL value, read-out: MIC M. tuberculosis in molar units): 0.7 to 2.9 µM
